We go through 4 compounds from patent US5750391A, “Filariid nematode cysteine protease proteins” (Heska Corporation, priority 1995, dated 1998).

SMILES strings stand for the structures. Entries after “also recorded” stand apart in the source; their conditions may differ. Read-outs that look alike come from different tables or passages of the source.

One experiment deals with astacin. Conditions: cited from earlier work.
In a further experiment the test system is D. immitis larvae. Description: Effect of protease inhibitors on larval molting (L3 cultured in NI medium). The class given is cell-based, Dirofilaria immitis. The following applies: for % molt: L3 larvae, 72 hours, 37° C.; for inhibition at 1000 µM / inhibition at 2500 µM / inhibition at 5000 µM: Dirofilaria immitis, 72 h, read-out: % reduction (of molt vs control).

`c1cnc2c(c1)ccc1cccnc12` [1,10-phenanthroline]: the “inhibition of astacin activity” value in the experiment with astacin is on record as “inhibited”.

Turning to `CC(C)C[C@H](NC(=O)[C@@H](O)[C@H](N)Cc1ccccc1)C(=O)O` [Bestatin], the “% molt” value in the experiment with D. immitis larvae (1.0 mM inhibitor) is 60.0%. In addition, the “% molt” value with D. immitis larvae (2.5 mM inhibitor) was determined as 34.8%. Besides, in the experiment with D. immitis larvae (5.0 mM inhibitor), the “% molt” value was found to be 4.9%. Besides, in the experiment on D. immitis larvae, the inhibition at 1000 µM was 27.3%, the inhibition at 2500 µM stood at 57.9% and the inhibition at 5000 µM came out at 94.1%. Besides, the “movement of treated larvae compared to controls” value in the experiment with D. immitis larvae (observed daily throughout the study) is reported as “moved much more slowly”. The “ability of the larvae to molt” value with D. immitis larvae (treatment of L3, 1 to 5 mM) is recorded as “inhibit molting; also recorded: significantly reduces the ability of the larvae to molt”.

Consider `O=C(O)CN(CCN(CC(=O)O)CC(=O)O)CC(=O)O` [EDTA, ethylene diamine tetraacetic acid], for which the “inhibition of astacin activity” value in the experiment on astacin was “inhibited”.

In the case of `CC(C)C[C@H](NP(=O)(O)O[C@@H]1O[C@@H](C)[C@H](O)[C@@H](O)[C@H]1O)C(=O)N[C@@H](Cc1c[nH]c2ccccc12)C(=O)O` [Phosphoramidon], in the experiment on D. immitis larvae, the “ability of the larvae to molt” value is given as “inhibit molting; also recorded: significantly reduces the ability of the larvae to molt”, the “condition of treated larvae” value was “in poor shape”, the “movement of treated larvae compared to controls” value is given as “very active” and the inhibition at 1000 µM came to 48.4%. In the experiment with D. immitis larvae, the inhibition at 2500 µM is 85.1% and the inhibition at 5000 µM stood at 100%. Moreover, the “inhibition of astacin activity” value in the experiment with astacin is reported as “not by phosphoramidon”.
